From article PMC12257544, “Fluorescent Isostere (Fluostere) of the Carboxylate: Design of hDHODH Fluorescent Inhibitors as Proof of Concept” (Journal of Medicinal Chemistry, 2025)
Values joined by “and” are separate entries in the source; they are usually repeats but may differ in a detail not shown here. Equal entries are not always repeated.

Tested on: not listed separately
Assay: Photophysical characterization (absorption, emission, QY, lifetime)
Type: physicochemical
Conditions: in ACN
Experimental: UV–Vis absorption spectra were recorded on a Cary60 spectrometer. Photoemission spectra, luminescence lifetimes, and quantum yields were acquired with a HORIBA Jobin Yvon IBH Fluorolog-TCSPC spectrofluorometer equipped with a Quanta-φ integrating sphere. […] Emission-decay data were collected in 2048 channels to 10000 counts in the peak channel. IRF was measures using colloidal silica suspension in H2O to scatter light. Data were analyzed with the software DAS6 (TCSPC decay-analysis software) using a nonlinear least-squares method to fit of the decay to a sum of exponentials. The value of χ^2, residuals and the autocorrelation function (Durbin-Watson parameter) were used to determine the quality of the fit. For measurements in the presence of hDHODH, 11a was incubated, at 1 μM concentration in TRIS Buffer 0.1 mM (pH 8) with 0.1% DMSO, alone or with different concentrations of recombinant protein ranging from 31.5 to 504 nM concentration. After 5 min incubation UV–Vis absorption spectra were recorded on a Cary60 spectrophotometer and photoemission spectra were acquired with a HORIBA Jobin Yvon IBH Fluorolog-TCSPC spectrofluorometer with excitation λ of 366 nm and maximum of emission at 500 nm; a.u. data were analyzed with GraphPad Prism using One Site – Specific Binding equation.

| SMILES | Lifetime | QY (luminescence quantum yield) | Stokes shift | λabs | λem |
| --- | --- | --- | --- | --- | --- |
| Oc1cc2ccccn2n1 [Compound 1, Pyrazolo[1,5-a]pyridin-2-ol] | 12 ns | 0.21 | 7567 cm^–1 | 310 nm | 405 nm |
| COc1cc2ccccn2n1 [Compound 1a, 2-Methoxypyrazolo[1,5-a]pyridine] | – | – | – | 305 nm | 400 nm |
| Cn1c(=O)cc2ccccn21 [Compound 1b, 1-Methylpyrazolo[1,5-a]pyridin-2(1H)-one] | – | – | – | 335 nm | 465 nm |
| CCOC(=O)c1c(OC)nn2ccccc12 [Compound 2a, Ethyl 2-methoxypyrazolo[1,5-a]pyridine-3-carboxylate] | 9 ns | 0.45 | 5942 cm^–1 | 310 nm | 380 nm |
| CCOC(=O)c1c(=O)n(C)n2ccccc12 [Compound 2b, Ethyl 1-methyl-2-oxo-1,2-dihydropyrazolo[1,5-a]pyridine-3-carboxylate] | 11 ns | 0.26 | 6514 cm^–1 | 345 nm | 445 nm |
| CCOC(=O)c1c(OCc2ccccc2)nn2ccccc12 [Compound 2c, Ethyl 2-(Benzyloxy) Pyrazolo[1,5-a]pyridine-3-carboxylate] | 9 ns | 0.43 | 5942 cm^–1 | 310 nm | 380 nm |
| CCOC(=O)c1c(=O)n(Cc2ccccc2)n2ccccc12 [Compound 2d, Ethyl 1-benzyl-2-oxo-1,2-dihydropyrazolo[1,5-a]pyridine-3-carboxylate] | 12 ns | 0.30 | 6414 cm^–1 | 348 nm | 448 nm |
| O=[N+]([O-])c1c(O)nn2ccccc12 [Compound 3, 3-Nitropyrazolo[1,5-a]pyridin-2-ol] | – | – | – | 361 nm | n.e. ^a |
| COc1nn2ccccc2c1NC(C)=O [Compound 3a, N-(2-methoxypyrazolo[1,5-a]pyridine-3-yl)acetamide] | – | <0.01 | 10169 cm^–1 | 312 nm | 457 nm |
| COc1nn2ccccc2c1NS(C)(=O)=O [Compound 3b, N-(2-methoxypyrazolo[1,5-a]pyridin-3-yl)methanesulfonamide] | 2 ns | <0.01 | 10379 cm^–1 | 315 nm | 468 nm |
| COc1nn2ccccc2c1C=C(C#N)C#N [Compound 4a, 2-((2-Methoxypyrazolo[1,5-a]pyridin-3-yl)methylene)] | – | – | – | 393 nm | n.e. |
| COC(=O)/C(C#N)=C/c1c(OC)nn2ccccc12 [Compound 4b, Methyl (e)-2-cyano-3-(2-methoxypyrazolo[1,5-a]pyridin-3-yl)acrylate] | – | – | – | 395 nm | n.e. |
| COc1nn2ccccc2c1/C=C/c1ccccc1 [Compound 5a, (E)-2-methoxy-3-styrylpyrazolo[1,5-a]pyridine] | 3.5 ns | <0.01 | 9851 cm^–1 | 335 nm | 500 nm |
| COc1nn2ccccc2c1/C=C/c1ccc(SC)cc1 [Compound 5b, (E)-2-methoxy-3-(4-(methylthio)styryl)pyrazolo[1,5-a]pyridine] | 3.5 ns | <0.01 | 8964 cm^–1 | 350 nm | 510 nm |
| COc1nn2ccccc2c1/C=C/c1ccc(S(C)(=O)=O)cc1 [Compound 5c, (E)-2-methoxy-3-(4-(methylsulfonyl)styryl)pyrazolo[1,5-a]pyridine] | 3.5 ns | <0.01 | 5750 cm^–1 | 370 nm | 470 nm |
| COc1nn2ccccc2c1/C=C/c1ccc(C#N)cc1 [Compound 5d, (E)-4-(2-(2-methoxypyrazolo[1,5-a]pyridin-3-yl)vinyl)benzonitrile] | 3.5 ns | <0.01 | 5178 cm^–1 | 378 nm | 470 nm |
| COc1nn2ccccc2c1/C=C/c1ccc([N+](=O)[O-])cc1 [Compound 5e, (E)-2-methoxy-3-(4-nitrostyryl) Pyrazolo[1,5-a]pyridine] | <0.1 ns | <0.01 | 8368 cm^–1 | 426 nm | 662 nm |
| COc1nn2ccccc2c1-c1ccc2ccccc2c1 [Compound 6, 2-Methoxy-3-(naphthalen-2-yl)pyrazolo[1,5-a]pyridine] | 4.3 ns | 0.13 | 7480 cm^–1 | 345 nm | 465 nm |
| COc1nn2ccccc2c1-c1ccc2ccccc2n1 [Compound 7a, 2-(2-Methoxypyrazolo[1,5-a]pyridin-3-yl)quinoline] | 2.8 ns | 0.52 | 3330 cm^–1 | 370 nm | 422 nm |
| COc1nn2ccccc2c1-c1ccc2cccnc2c1 [Compound 7b, 7-(2-Methoxypyrazolo[1,5-a]pyridin-3-yl)quinoline] | 5.5 ns | 0.42 | 5868 cm^–1 | 356 nm | 450 nm |
| COc1nn2ccccc2c1-c1ccc2ncccc2c1 [Compound 7c, 6-(2-Methoxypyrazolo[1,5-a]pyridin-3-yl)quinoline] | 5.3 ns | 0.24 | 6832 cm^–1 | 350 nm | 460 nm |
| CCOC(=O)c1c(O)nn2c(N(C)C)cccc12 [Compound 8a, Ethyl 7-(Dimethylamino)-2-hydroxypyrazolo[1,5-a]pyridine-3-carboxylate] | 3.7 ns | 0.06 | 5255 cm^–1 | 338 nm | 411 nm |
| COc1nn2c(Cl)cccc2c1-c1ccc2ncccc2c1 [Compound 9a, 6-(7-Chloro-2-methoxypyrazolo[1,5-a]pyridin-3-yl)quinoline] | 5.1 ns | <0.01 | 6832 cm^–1 | 350 nm | – |
| COc1nn2c(N(C)C)cccc2c1-c1ccc2ncccc2c1 [Compound 9b, 2-Methoxy-N,N-dimethyl-3-(quinolin-6-yl)pyrazolo[1,5-a]pyridin-7-amine] | 2.7 ns | 0.10 | 9508 cm^–1 | 362 nm | 552 nm |
| Oc1nn2ccccc2c1/C=C/c1cc(F)c(-c2ccccc2)c(F)c1F [Compound 11b] | <1 ns | 0.08 | 3531 cm^–1 | 450 nm | 542 nm and 535 nm |
| Oc1nn2ccccc2c1-c1ccc2cc(-c3ccccc3)ccc2n1 [Compound 12, 3-(6-Phenylquinolin-2-yl)pyrazolo[1,5-a]pyridin-2-ol] | 2.3 ns | <0.01 | 2385 cm^–1 | 390 nm | 430 nm |
| Oc1nn2ccccc2c1-c1ccc2cc(-c3ccccc3)cnc2c1 [Compound 13, 3-(3-Phenylquinolin-7-yl)pyrazolo[1,5-a]pyridin-2-ol] | 3.7 ns | 0.74 | 5288 cm^–1 | 370 nm | 460 nm |

Same assay, conditions: solid state

| SMILES | emission in the solid state |
| --- | --- |
| COc1nn2ccccc2c1C=C(C#N)C#N [Compound 4a, 2-((2-Methoxypyrazolo[1,5-a]pyridin-3-yl)methylene)] | yellow light |
| COC(=O)/C(C#N)=C/c1c(OC)nn2ccccc12 [Compound 4b, Methyl (e)-2-cyano-3-(2-methoxypyrazolo[1,5-a]pyridin-3-yl)acrylate] | yellow light |

Tested on: THP-1 cells
Assay: Co-localization competition assay with Bay2402234 (Manders coefficient)
Type: cell-based, human
Conditions: THP-1 cells, 10 μM, 3 h
Experimental: Colocalization between hDHODH inhibitors and mitochondria was quantified using Manders coefficient (Figure D).
THP-1 cells were incubated for 3 h with hDHODHi 11a and Bay240223410 at 10 μM, either alone or in combination. After incubation, the cells were washed and stained with Red-MitoTracker CMXRos (Thermo Fisher, Carlsbad, CA, USA) at a concentration of 100 nM for 30 min at 37 °C. Cells were imaged with a Leica TCS SP8 confocal system (Leica Microsystems) equipped with 4 excitation lasers (405 Diode, Argon, DPSS561, HeNe633). Images were acquired with a HCX PL APO 63×/1.4 NA oil-immersion objective with a resolution of 81 nm × 81 nm and were processed and analyzed with ImageJ software (Rasband, W.S., U.S. National Institutes of Health, Bethesda, […]). In particular, colocalization was analyzed with JACoP plugin and Manders’ coefficient was calculated

| SMILES | fluorescence at the wavelength specific for 11a |
| --- | --- |
| CCn1c(CO)nn(-c2cc(O[C@@H](C)C(F)(F)F)c(C(=O)Nc3c(F)cccc3Cl)cc2F)c1=O [Bay2402234, reference compound] | no detectable fluorescence |

Biological target: hDHODH enzyme GST-tagged (Homo sapiens, UniProt Q02127)
Sequence (Q02127 whole entry): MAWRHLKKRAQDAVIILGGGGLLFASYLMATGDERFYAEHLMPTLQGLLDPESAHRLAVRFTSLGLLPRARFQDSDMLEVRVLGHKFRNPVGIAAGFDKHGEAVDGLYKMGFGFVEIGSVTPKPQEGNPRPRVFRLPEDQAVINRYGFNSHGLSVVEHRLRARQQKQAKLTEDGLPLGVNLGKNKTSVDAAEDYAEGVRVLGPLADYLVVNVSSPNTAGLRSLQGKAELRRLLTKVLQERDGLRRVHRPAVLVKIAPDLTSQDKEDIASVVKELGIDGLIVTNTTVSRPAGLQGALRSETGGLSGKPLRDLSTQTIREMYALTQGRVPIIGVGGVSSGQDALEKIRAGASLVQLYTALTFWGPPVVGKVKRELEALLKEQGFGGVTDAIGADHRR
Assay: hDHODH inhibition assay (DCIP reduction)
Conditions: not given

| SMILES | IC50 |
| --- | --- |
| Oc1nn2ccccc2c1-c1ccc2cc(-c3ccccc3)ccc2n1 [Compound 12, 3-(6-Phenylquinolin-2-yl)pyrazolo[1,5-a]pyridin-2-ol] | 16 µM |
| Oc1nn2ccccc2c1-c1ccc2cc(-c3ccccc3)cnc2c1 [Compound 13, 3-(3-Phenylquinolin-7-yl)pyrazolo[1,5-a]pyridin-2-ol] | 33 µM |

Tested on: not listed separately
Assay: Experimental pKa
Type: physicochemical
Conditions: not given

| SMILES | pKa |
| --- | --- |
| Oc1cc2ccccn2n1 [Compound 1, Pyrazolo[1,5-a]pyridin-2-ol] | ~5 |

Tested on: not given
Assay: not given
Parameters: method as in doi:10.1021/cr00002a004
Conditions: substituent in position 3; cited from earlier work

| SMILES | σ p (Hammett substituent constant) |
| --- | --- |
| O=[N+]([O-])c1c(O)nn2ccccc12 [Compound 3, 3-Nitropyrazolo[1,5-a]pyridin-2-ol] | 0.78 |
| COc1nn2ccccc2c1NC(C)=O [Compound 3a, N-(2-methoxypyrazolo[1,5-a]pyridine-3-yl)acetamide] | 0.00 |
| COc1nn2ccccc2c1NS(C)(=O)=O [Compound 3b, N-(2-methoxypyrazolo[1,5-a]pyridin-3-yl)methanesulfonamide] | 0.03 |
